# Experiments:
# Assay type in all cases: cell-based, human
# GBM12, GBM6, and GBM22 = experiment: Bromodeoxyuridine cell proliferation assay; settings: 48 hours
# Description: Cell proliferation was assessed using the bromodeoxyuridine (BrdU) cell proliferation enzyme-linked immunosorbent assay kit (Abcam, Cambridge, United Kingdom) according to the manufacturer's instructions.
# EGR1 = EGR1 levels (qPCR, Western blot) and EGR1 promoter luciferase assay
# Description: Whole protein extracts from cells or tumor tissues were analyzed by western blot as previously described (Altieri et al. (2015) Surg. Technol. Int 27: 297-302). Mayo PDX cells were serum starved overnight. Following treatment for specific time, cells were harvested and lysed. The human glioblastoma tissues were ground in liquid nitrogen and then were lysed. EGFR (06-847) antibody was from Millipore. DOCK7 was from Proteintech (Rosemont, Ill.). pEGFR (2236), STAT3 (12640), pSTAT3 (9145), cdc42(4376), and RhoA (4695) antibodies were from Cell Signaling Technology (Danvers, Mass.). TGFα antibody was from R&D system. BIN3 (sc-514396) and (3-Actin (sc-47778) were from Santa Cruz Biotechnology (Dallas, Tex.).
# Total RNA from cells was extracted by TRIzol Reagent (Ambion). First-strand cDNA and PCR was performed as described previously (Altieri et al. (2015) Surg. Technol. Int. 27: 297-302). The expression of each gene was normalized to GAPDH as a reference. The following primers were used. BIN3, 5′-[…]-3′ (SEQ ID NO:5) and 5′-[…]-3′ (SEQ ID NO:6); GAPDH, 5′-[…]-3′ (SEQ ID NO:7) and 5′-TGATG-[…]-3′ (SEQ ID NO:8).
# Cells were plated in 48 well dishes to 70%-80% confluence followed by transfection with EGR1 promoter plasmid or empty plasmid using lipofectamine 2000. […] Firefly luciferase activity was measured in a luminometer and normalized on the basis of Renilla luciferase activity.
# GBM12 and GBM22 cells = experiment: Single cell migration assay on nanoplates
# Excerpt: For time-lapse analysis of individual cell movement, nano-ridge constructed of transparent poly(urethane acrylate) (PUA), and fabricated using UV-assisted capillary lithography as described by Kim et al. were used (Kim, D et al. (2009) Mechanosensitivity of fibroblast cell shape and movement to anisotropic substratum topography gradients, Biomaterials 30: 5433-5444; Kim, et al. (2009) Guided Cell Migration on Microtextured Substrates with Variable Local Density and Anisotropy, Adv Funct Mater 19: 1579-1586; Garzon-Muvdi, et al. (2012) Regulation of brain tumor dispersal by NKCC1 through a novel role in focal adhesion regulation, PLoS Biol 10: e1001320). The 24 well NanoSurface plate was purchased from Curi Bio (Seattle, Wash.). Prior to cell seeding, nanoridges surfaces were coated with laminin (3 μg/cm^2, Sigma-Aldrich). Cells were plated at low density (1×10^4 cells/ml) and incubated at 37° C. overnight. The following day, cells were washed with PBS and cultured in DMEM supplemented with 1% FBS and were ready for time-lapse imaging. To measure cell proliferation, 6 hours after plating Histone2B-GFP (C10594, ThermoFisher) was added for nuclear staining overnight. The next day cells were incubated with a mixture of BioTracker® NTP-Transporter Molecule (SCT064, Sigma Aldrich) and Cy3-dUTP (50-190-5459, ThermoFisher) for 10 minutes and then replaced with 1% FBS media containing HB2B2-GFP. For time-lapse imaging, the plate was mounted onto the stage of Andor spinning disk confocal microscope equipped with temperature and CO2 controlling environmental chamber. […] Both fluorescent and bright-field images were taken every 30 minutes for 24 hours using a 10× objective. ImageJ manual track Plugin was used to track the movement of cells frame by frame.
# Analysis of individual cellular movement was performed as described elsewhere herein. EGF (50 ng/ml) or vehicle was added 6 hours after the start of time-lapse imaging (n=63 cells). Vehicle was used as a negative control (n=67 cells). Single cell migration speed was calculated using Manual tracking Plugin in ImageJ. […] Cell migration velocity was calculated over a period of 6 hours. […] Analysis of individual cell proliferation was performed as described elsewhere herein. EGF (50 ng/ml) was added 6 hours after the start of time-lapse imaging (n=56). Vehicle was used as a negative control (n=64). Representative static time-lapse Cy3 and H2B-GFP staining images of the same cell before and after addition of EGF are shown in FIG. 25E. […] Each point represents the percentage of Ki positive cells in total 100 cells. […] Cell migration velocity was calculated over a period of 6 hours (n=81). Vehicle was used as a negative control (n=89). […] Scale bar=[…]. Data are represented as media ±5-95% interquartile range (FIG. 25B and FIG. 25K) or mean±SEM (FIG. 25D and FIG. 25M). ***P<0.001, […], n.s. not significant, Mann-Whitney test was used for pair comparison. Two-way ANOVA test was used to analyze Cy3 intensity data in FIG. 25D and FIG. 25M. The results are representative of two independently repeated experiments.
# Single-cell migration analysis was performed as described for FIG. 25A above (Vehicle group, n=57, EGF group, n=74). […] Cell migration velocity was calculated over a period of 6 hours. Vehicle was used as a negative control (n=57). […] Analysis of individual cell proliferation was performed as described elsewhere herein. […] Cell migration velocity was calculated over a period of 6 hours. […]
# HB-EGF = experiment: ELISA for HB-EGF in supernatants; settings: tofacitinib 1 μM, 72 hours; GBM12 and GBM6
# Description: To determine EGFR ligands in medium, cells were serum starved for 48 hours, supernatants were collected and concentrated 5- to 10-fold with Pierce protein concentrator (ThermoFisher). HB-EGF, TGFα and EGF protein concentration in supernatant and tumor tissue extracts was determined by ELISA using the corresponding commercial HB-EGF, TGFα and EGF protein detection kits (ThermoFisher) per the manufacturer's instructions.
# CDC42 = experiment: Cdc42 pull down assay (CDC42-GTP); settings: 24 hours, GBM12 and GBM6
# Description: (§1) The amount of GTP-bound RhoA and Cdc42 were measured using RhoA and Cdc42 pull down assay kit (Cell Signaling) according to the protocol provided by the manufacturer. Briefly, cell lysates were incubated with either glutathione S-transferase (GST)-Rhotekin-RBD or GST-PAK-PBD beads 4° C. for 1 hour to pull down GTP-bound RhoA or Cdc42. Beads were washed four times in washing buffer and re-suspended in lysis buffer. RhoA-GTP and Cdc42-GTP were detected by Western blot using RhoA and Cdc42 antibodies.
# RhoA = RhoA pull down assay (RhoA-GTP); settings: 24 hours, GBM12 and GBM6
# Description: as §1
molecule,measurement,setting,value
C[C@@H]1CCN(C(=O)CC#N)C[C@@H]1N(C)c1ncnc2[nH]ccc12 [tofacitinib],proliferation (BrdU incorporation),"GBM12, GBM6, and GBM22; tofacitinib 1 μM",induced proliferation
same,EGR1 levels and activity,"EGR1; tofacitinib, Western blot 4 hours, luciferase 2 and 24 hours",induces EGR1 levels and activity
same,single cell migration,"GBM12 and GBM22 cells; tofacitinib 1 μM, GBM12",decreased invasion
same,single cell proliferation (Cy3),"GBM12 and GBM22 cells; tofacitinib 1 μM, GBM12",increased proliferation
same,single cell migration and proliferation,"GBM12 and GBM22 cells; tofacitinib 1 μM, second PDX line (GBM22)",confirmed
same,HB-EGF in supernatant,HB-EGF,upregulates
EGF: Recombinant human EGF (AF-100) from Peprotech; EGFR ligand,proliferation (BrdU incorporation),"GBM12, GBM6, and GBM22; EGF 50 ng/ml",induces proliferation
same,CDC42 activity,CDC42; EGF 50 ng/ml,decreases the activity
same,"EGR1 mRNA, protein and transcriptional activity","EGR1; EGF 50 ng/ml, GBM12 and GBM6",upregulation of EGR1 was confirmed
same,single cell migration,"GBM12 and GBM22 cells; EGF 50 ng/ml, GBM12",significant slowing of migration
same,"single cell proliferation (Cy3 linked marker, Ki-67)","GBM12 and GBM22 cells; EGF 50 ng/ml, GBM12",induces proliferation
same,RhoA activity,RhoA; EGF 50 ng/ml,decreases the activity
HGF: the ligand for Met,CDC42 activity,CDC42; HGF 20 ng/ml,increase of CDC42 activity was not detected
same,RhoA activity,RhoA; HGF,increase in RhoA activity

# Reference: patent publication US20230075368A1, “IDENTIFICATION OF AN EGFR-BIN3 PATHWAY THAT ACTIVELY SUPPRESSES INVASION AND REDUCES TUMOR SIZE IN GLIOBLASTOMA” (The United States Govemment as represented by the …, priority 2020, published 2023)
